Test results reported in ChEMBL document CHEMBL5385875, “Tumor killing by a dietary curcumin mono-carbonyl analog that works as a selective ROS generator via TrxR inhibition” (Eur J Med Chem, 2023).
Calls of active or inactive are those of the source. The calls are words filed in the database; no cut-off is given here.

Experiments:
NCI-H460 [1] = test: Upregulation of Bax expression in human NCI-H460 cells at 1 to 2 uM measured after 48 hrs in presence of NAC by immunoblot analysis; assay type: functional, cell-based; details: dose 1-2 µM
MRC5 = test: Induction of intracellular ROS accumulation in human MRC5 cells at upto 2 uM incubated for 6 hrs by DCFH-DA dye based fluorescence assay; assay type: functional, cell-based
NCI-H460 [2] = test: Cytotoxicity against human NCI-H460 cells assessed as reduction in cell viability at 0.5 to 2 uM incubated for 48 hrs in presence of alpha tocopherol by MTT assay; assay type: functional, cell-based; details: dose 0.5-2 µM
NCI-H460 [3] = test: Induction of ferroptosis in human NCI-H460 cells assessed as increase in MDA levels at 2 uM measured after 40 hrs in presence of NAC by MDA assay; assay type: functional, cell-based
[4] = Selectivity index, ratio of IC50 for human MRC5 cells to IC50 for human NCI-H460 cells; assay type: toxicity; details: MRC5 cells versus NCI-H460 cells, read-out: Ratio IC50
NCI-H460 [5] = test: Antitumor activity against human NCI-H460 cells xenografted in BALB/c nude mouse assessed as induction of […] at 5 to 15 mg/kg by TUNEL staining based analysis; assay type: functional, organism-based; details: dose 5-15 mg/kg
NCI-H460 [6] = test: Upregulation of caspase-3 activation in human NCI-H460 cells at 1 to 2 uM measured after 48 hrs by immunoblot analysis; assay type: functional, cell-based; details: dose 1-2 µM
NCI-H460 [7] = test: Induction of ferroptosis in human NCI-H460 cells assessed as increase in intracellular […] by measuring increase in red fluorescence intensity at 0.5 uM incubated for 40 hrs in presence of NAC by C11-BODIPY staining based microscopy analysis; assay type: functional, cell-based
NCI-H460 [8] = test: Antitumor activity against human NCI-H460 cells xenografted in BALB/c nude mouse assessed as downregulation of GPX4 expression at 5 to 15 mg/kg by immunohistochemical staining based analysis; assay type: functional, organism-based; details: dose 5-15 mg/kg
[9] = Toxicity in BALB/c nude mouse assessed as effect on animal diet status at 5 to 15 mg/kg, ip measured every two days for 27 days; assay type: organism-based; details: in vivo, 648 h, dose 5-15 mg/kg, time 27 day
NCI-H460 [10] = test: Antitumor activity against human NCI-H460 cells xenografted in BALB/c nude mouse assessed as inhibition of tumor formation administered as IP dose and measured every two days for 27 days; assay type: functional; details: dose 5-15 mg/kg, time 27.0 day
NCI-H460 [11] = test: Cytotoxicity against human NCI-H460 cells assessed as reduction in cell viability at 0.5 to 2 uM incubated for 48 hrs in presence of BSO by MTT assay; assay type: functional, cell-based; details: dose 0.5-2 µM
[12] = Inhibition of TrxR protein expression in human NCI-H460 cells at 2 uM measured after 6 hrs by immunoblot analysis relative to control; assay type: functional
A549 = test: Cytotoxicity against human A549 cells assessed as reduction in cell viability incubated for 48 hrs by MTT assay; assay type: functional, cell-based; details: A549, 48 h
[13] = biological target: T1, Thioredoxin reductase (Homo sapiens) (UniProt Q16881+Q9NNW7+Q86VQ6); test: Inhibition of TrxR in human NCI-H460 cells at 2 uM measured after 6 hrs by DTNB reduction assay relative to control; assay type: cell-based
NCI-H460 [14] = test: Induction of ferroptosis in human NCI-H460 cells assessed as fold increase in MDA levels at 2 uM measured after 40 hrs by MDA assay; assay type: functional
NCI-H460 [15] = test: Induction of ROS accumulation in human NCI-H460 cells assessed as reduction in GSH levels by measuring yellow green fluorescence incubated for 9 hrs in presence of NAC by fluorescence microscope based analysis; assay type: functional, cell-based
[16] = Toxicity in BALB/c nude mouse assessed as effect on kidney at 5 to 15 mg/kg, ip measured every two days for 27 days; assay type: organism-based; details: in vivo, 648 h, dose 5-15 mg/kg, time 27 day
NCI-H460 [17] = test: Induction of ferroptosis in human NCI-H460 cells assessed as increase in MDA levels at 2 uM measured after 40 hrs in presence of VE by MDA assay; assay type: functional, cell-based
NCI-H460 [18] = test: Cytotoxicity against human NCI-H460 cells assessed as reduction in cell viability at 0.5 to 1 uM measured after 48 hrs in presence of erastin by MTT assay; assay type: functional, cell-based; details: dose 0.5-1 µM
NCI-H460 [19] = test: Induction of ROS accumulation in human NCI-H460 cells assessed as reduction in GSH levels by measuring yellow green fluorescence incubated for 9 hrs by fluorescence microscope based analysis; assay type: functional, cell-based
NCI-H460 [20] = test: Cytotoxicity against human NCI-H460 cells assessed as reduction in cell viability at 0.5 to 1 uM measured after 48 hrs in presence of Z-VAD-fmk by MTT assay; assay type: functional, cell-based; details: dose 0.5-1 µM
NCI-H460 [21] = test: Cytotoxicity against human NCI-H460 cells assessed as reduction in cell viability incubated for 48 hrs by MTT assay; assay type: functional, cell-based; details: NCI-H460, 48 h
NCI-H460 [22] = test: Induction of ferroptosis in human NCI-H460 cells assessed as increase in intracellular […] by measuring increase in red fluorescence intensity at 0.25 to 0.5 uM incubated for 40 hrs by C11-BODIPY staining based microscopy analysis; assay type: functional, cell-based; details: dose 0.25-0.5 µM
NCI-H460 [23] = test: Upregulation of caspase-9 activation in human NCI-H460 cells at 1 to 2 uM measured after 48 hrs by immunoblot analysis; assay type: functional, cell-based; details: dose 1-2 µM
NCI-H460 [24] = test: Induction of ferroptosis in human NCI-H460 cells assessed as reduction in GPX4 protein expression at 1 to 2 uM measured after 24 hrs in presence of NAC by immunoblot analysis; assay type: functional, cell-based; details: dose 1-2 µM
[25] = Toxicity in BALB/c nude mouse assessed as effect on animal activity at 5 to 15 mg/kg, ip measured every two days for 27 days; assay type: organism-based; details: in vivo, 648 h, dose 5-15 mg/kg, time 27 day
[26] = Toxicity in BALB/c nude mouse assessed as effect on spleen at 5 to 15 mg/kg, ip measured every two days for 27 days; assay type: organism-based; details: in vivo, 648 h, dose 5-15 mg/kg, time 27 day
NCI-H460 [27] = test: Cytotoxicity against human NCI-H460 cells assessed as reduction in cell viability at 0.5 to 2 uM incubated for 48 hrs in presence of N-acetylcysteine by MTT assay; assay type: functional, cell-based; details: dose 0.5-2 µM
HT-1080 = test: Cytotoxicity against human HT-1080 cells assessed as reduction in cell viability incubated for 48 hrs by MTT assay; assay type: functional, cell-based; details: HT-1080, 48 h
NCI-H460 [28] = test: Downregulation of Bcl-2 expression in human NCI-H460 cells at 1 to 2 uM measured after 48 hrs in presence of NAC by immunoblot analysis; assay type: functional, cell-based; details: dose 1-2 µM
[29] = biological target: T1, Thioredoxin reductase (Homo sapiens); test: Inhibition of TrxR in human MRC5 cells at 2 uM measured after 6 hrs by fluorescence microscopy based analysis; assay type: cell-based
NCI-H460 [30] = test: Induction of apoptosis in human NCI-H460 cells assessed as reduction of mitochondrial membrane potential incubated for 12 to 36 hrs by JC-1 staining based flow cytometry analysis; assay type: functional, cell-based; details: dose 0.5-2 µM, time 12-36 hrs
NCI-H460 [31] = test: Upregulation of Bax expression in human NCI-H460 cells at 1 to 2 uM measured after 48 hrs by immunoblot analysis; assay type: functional, cell-based; details: dose 1-2 µM
[32] = Toxicity in BALB/c nude mouse assessed as animal death at 5 to 15 mg/kg, ip measured every two days for 27 days; assay type: organism-based; details: in vivo, 648 h, dose 5-15 mg/kg, time 27 day
NCI-H460 [33] = test: Cytotoxicity against human NCI-H460 cells assessed as reduction in cell viability at 0.5 to 1 uM measured after 48 hrs in presence of necrostatin-1 by MTT assay; assay type: functional, cell-based; details: dose 0.5-1 µM

SMILES: O=C1/C(=C/c2cccc(C(F)(F)F)c2)CNC/C1=C\c1cccc(C(F)(F)F)c1
- Activity (NCI-H460 [1]): inactive
- Activity (MRC5): inactive
- Activity (NCI-H460 [2]): inactive
- Activity (NCI-H460 [3]): inactive
- selectivity ratio [4]: 32
- Activity (NCI-H460 [5]): Active
- Activity (NCI-H460 [6]): Active
- Activity (NCI-H460 [7]): inactive
- Activity (NCI-H460 [8]): Active
- Activity [9]: Non-Toxic
- Activity (NCI-H460 [10]): Dose-Dependent Effect
- Activity (NCI-H460 [11]): Active
- inhibition at 2 µM [12]: 69%
- IC50 (A549): 5800 nM
- inhibition [13]: 59%
- fold change (FC) (NCI-H460 [14]): 3.5
- Activity (NCI-H460 [15]): inactive
- Activity [16]: Non-Toxic
- Activity (NCI-H460 [17]): inactive
- Activity (NCI-H460 [18]): Active
- Activity (NCI-H460 [19]): Dose-Dependent Effect
- Activity (NCI-H460 [20]): Active
- IC50 (NCI-H460 [21]): 440 nM
- Activity (NCI-H460 [22]): Active
- Activity (NCI-H460 [23]): Active
- Activity (NCI-H460 [24]): inactive
- Activity [25]: Non-Toxic
- Activity [26]: Non-Toxic
- Activity (NCI-H460 [27]): inactive
- IC50 (HT-1080): 930 nM
- Activity (NCI-H460 [28]): inactive
- inhibition [29]: inactive
- Activity (NCI-H460 [30]): Dose-Dependent Effect
- Activity (NCI-H460 [31]): Active
- Activity [32]: Non-Toxic
- Activity (NCI-H460 [33]): inactive
